Consider twelve compounds from PubChem BioAssay (NCI).

Where “and” joins values, the source holds several entries; their conditions need not be identical. Equal entries are not always repeated.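 Each compound was tested at five concentrations against cells in 96-well plates for 48 hours. Here, GI50 denotes the concentration required for 50% inhibition of growth. TGI marks complete inhibition of growth.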

Common to all, as to assay: NCI anticancer screen, dose series, 48 h
The test system of test [1] is HCT-15 colon.
For test [2], the system named is K-562 leukemia.
Test [3] relates to KM12 colon.
Test [4] has as its system SNB-19 CNS.
The subject of test [5] is MCF7 breast.
The test system of test [6] is NCI-H460 lung.
Test [7] deals with NCI-H226 lung.
The test system of test [8] is A549 NSCLC.
In test [9] the test system is CAKI-1 renal.
For test [10], the system named is MDA-MB-231 breast.

For `Cc1ccc(C(=O)Nc2ccc(CN3CCN(C)CC3)c(C(F)(F)F)c2)cc1C#Cc1cnc(N)c2ccc(F)cc12`, the GI50 in test [1] was 112 nM; in [2], 4.31 nM; in [3] it was 186 nM; in test [4] it was 641 nM; in [5], 441 nM; in test [6], 232 nM. Further, the GI50 in [7] was 737 nM; in [8] it was 0.27 µM; in test [9], 216 nM; in test [10], 353 nM. Further, the TGI in test [1] is 0.456 µM; in test [2], 0.9 µM; in test [3] it was 0.778 µM; in [4] it was 1.81 µM; in test [5] it was 0.861 µM; in test [6], 0.647 µM. For the same compound, the TGI in [7] stood at 3.66 µM; in test [8] it was 0.712 µM; in test [9], 1.29 µM; in [10], 0.905 µM.
Take `Cn1cc(C2=C(c3cn(C)c4ccc(N)cc34)C(=O)NC2=O)c2ccccc21`: the GI50 is 4520 nM in [1]; 1920 nM in [2]; 6400 nM in test [3]; > 25000 nM in test [4]; 4760 nM in test [5]; 9530 nM in [6]. The GI50 is > 17600 nM in test [7], 12.5 µM in test [8], 4850 nM in test [9] and > 25000 nM in [10]. Also, the TGI in test [1], in [2], in test [3], in [4], in test [5] and in [6] was > 25 µM each time. Further, the TGI in test [7], in test [8], in test [9] and in test [10] was > 25 µM in each case.
Take `CC1(C)N=C(N)N=C(N)N1c1ccc(CCc2ccccc2)c(Cl)c1`: the GI50 is 2550 nM in test [1]; 32.3 nM in test [2]; 99.4 nM in test [3]; 172 nM in test [4]; 58 nM in test [5]; 42 nM in test [6]. Also, the GI50 was 521 nM in test [7], 0.0452 µM in test [8], 3990 nM in [9] and 1090 nM in test [10]. For the same compound, the TGI in [1] was > 100 µM; in test [2], 14.6 µM; in [3], 7.61 µM; in [4], 15.4 µM; in [5], 13 µM; in [6], 11.6 µM. Moreover, the TGI in [7] was 17.1 µM; in [8], 14 µM; in [9] it was > 48.8 µM; in [10] it was 19.9 µM.
Turning to `CNC(=O)Nc1ccc(-c2nc(N3CCOCC3)nc3c2cnn3C2CCOCC2)cc1`, the GI50 in [1] was 260 nM; in [2], 533 nM; in test [3] it was 384 nM; in test [4], 396 nM; in [5], 78.4 nM; in test [6], 131 nM. Moreover, the GI50 in [7] was 125 nM; in test [8] it was 0.204 µM; in test [9], 227 nM; in [10], 292 nM. For the same compound, the TGI in [1], in test [2], in test [3], in test [4], in test [5] and in [6] was > 100 µM each time. The TGI is 4.26 µM in test [7], 2.71 µM in test [8], 2.62 µM in [9] and > 51.9 µM in test [10].
Take `O=C(CC(C(=O)c1cccs1)c1ccc2c(c1)OCO2)c1ccc(Br)cc1` (stereo not given): the TGI in [1], in test [2], in test [3], in [4], in test [5] and in test [6] was > 100 µM each time. The TGI in [7], in test [8], in test [9] and in test [10] was > 100 µM in each case.
For `O=C(Nc1ccc(OC(F)(F)F)cc1)c1sccc1NCc1ccnc2ccccc12`, the GI50 was 3220 nM in test [1]; 1610 nM in test [2]; 3850 nM in test [3]; 13000 nM in test [4]; 4190 nM in test [5]; 4010 nM in test [6]. The GI50 is 2890 nM in [7], 4.11 µM in test [8], 1750 nM in [9] and 1980 nM in test [10]. Also, the TGI in [1] is > 66.7 µM; in test [2] it was > 100 µM; in [3], > 56.9 µM; in test [4] it was > 100 µM; in test [5], 36 µM; in [6], > 100 µM. Further, the TGI is > 90.6 µM in test [7], > 100 µM in [8], 19.3 µM in [9] and 15.5 µM in test [10].
For `CCc1nc(N)nc(N)c1-c1ccc([N+](=O)[O-])c(NCc2ccccc2)c1`, the TGI in [1] was 38.2 µM; in test [2], 20.7 µM; in [3], 49.2 µM; in test [4], 38.9 µM; in test [5], 40.2 µM; in test [6], 20.2 µM. Moreover, the TGI in [7] was determined as 46.8 µM; in [8], 24.8 µM; in [9] it was 29.3 µM; in test [10] it was 38.1 µM.
Consider `COC1/C=C/OC2(C)Oc3c(C)c(O)c4c(c3C2=O)C(=O)C=C(NC(=O)/C(C)=C\C=C\C(C)C(OC=O)C(C)C(O)C(C)C(OC(C)=O)C1C)C4=O` (stereo not given), for which the TGI is 22.7 µM in test [1]; 20.7 µM in test [2]; 45.9 µM in test [3]; 27.4 µM in test [4]; 7.29 µM in test [5]; 42 µM in test [6]. Also, the TGI was 21.5 µM in [7], 39.7 µM in test [8], 28.3 µM in test [9] and > 48.5 µM in test [10].
Regarding `NS(=O)(=O)c1ccc(N2Cc3cc(Cl)ccc3OC3=C2C(=O)N(CC2CCCCC2)C3=O)cc1`, the GI50 in [1] is 344 nM; in [2], 270 nM; in test [3], 1830 nM; in [4], 1600 nM; in test [5], 364 nM; in test [6] it was 1720 nM. In addition, the GI50 in test [7] was 1540 nM; in [8], 2.13 µM; in [9], 1240 nM; in test [10], 1110 nM. The TGI in test [1] was found to be 1.45 µM; in test [2], 0.736 µM; in test [3], 4.08 µM; in test [4] it was 3.44 µM; in test [5], 1.9 µM; in test [6] it was 4.04 µM. Also, the TGI in [7] came to 3.6 µM; in [8], 3.99 µM; in test [9], 2.55 µM; in test [10], 2.6 µM.
For the compound `COc1cc2cc(Oc3ccc(NC(=O)c4cccc(C(F)(F)F)c4)cc3)c(C)nc2cc1OC`, the GI50 in test [1] was 4650 nM; in [2], 4250 nM; in test [3], 4030 nM; in test [4] it was 8090 nM; in test [5], 3470 nM; in [6], 4070 nM. For the same compound, the GI50 in test [7] is 7840 nM; in test [8] it was 4.28 µM; in [9], 2750 nM; in test [10], 3380 nM. Besides, the TGI in test [1] was > 100 µM; in test [2], > 100 µM; in test [3] it was > 100 µM; in [4], > 100 µM; in test [5], 24.3 µM; in [6], > 100 µM. The TGI in test [7] is > 100 µM; in test [8] it was > 100 µM; in test [9], > 100 µM; in test [10], 46.6 µM.
As to `CN1CCCN(CCNc2nccc(-c3c(-c4cccc(O)c4)nc4sccn34)n2)S1(=O)=O`, the GI50 is 7120 nM and 5510 nM in test [1]; 12900 nM and 5900 nM in test [2]; 11700 nM and 9820 nM in test [3]; 40000 nM and 48700 nM in test [4]; 22100 nM and 18800 nM in test [5]; 4410 nM and 4720 nM in test [6]. Moreover, the GI50 was 15300 nM and 11300 nM in [7]; 7.46 µM and 7.71 µM in test [8]; 2250 nM and 2150 nM in test [9]; 10000 nM and 8060 nM in test [10]. Moreover, the TGI in test [1] is 75 µM and 98.4 µM; in test [2] it was 75 µM and > 100 µM; in [3], 32.5 µM and 55.8 µM; in [4] it was 75 µM and > 100 µM; in [5], 75 µM and > 100 µM; in test [6], 75 µM and > 75.9 µM. Further, the TGI in test [7] is 50 µM and 54.5 µM; in test [8], 75 µM and > 100 µM; in test [9], 23.5 µM and 16.3 µM; in test [10] it was 59.2 µM and > 84.4 µM.
`CCOC(=O)c1c(NC(=O)c2ccc(C(C)C)cc2)sc2c(CN(C)C)c(O)ccc12`: the GI50 in test [1] was 1170 nM; in test [2] it was 535 nM; in [3], 1830 nM; in test [4], 2360 nM; in [5], 1750 nM; in test [6], 1880 nM. Also, the GI50 is 2190 nM in [7], 4.29 µM in [8], 1730 nM in [9] and 1950 nM in [10]. In addition, the TGI in [1] is 2.74 µM; in [2] it was 3.28 µM; in test [3], 3.45 µM; in test [4], 5.3 µM; in test [5], 3.77 µM; in test [6], 3.6 µM. The TGI in test [7] stood at 6.48 µM; in [8], 20.7 µM; in test [9], 3.44 µM; in test [10], 3.83 µM.
